# Measurements as given in patent US12655106B2 (Eikonizo Therapeutics, Inc., priority 2021, dated 2026).
# pIC50: −log10 of the molar value.
# Legend:
# [1] = biological target: T1, Full length Human HDAC8 (Homo sapiens, UniProt Q9BY41); experiment: Caliper endpoint assay for HDAC enzymatic activity (HDAC8); assay type: biochemical; conditions: in vitro enzymatic, 30 min pre-incubation, 1 μM substrate peptide
# T1 construct: Full length Human HDAC8; HIS (N); host or cells: baculovirus expression system
# T1 sequence (Q9BY41 1-377): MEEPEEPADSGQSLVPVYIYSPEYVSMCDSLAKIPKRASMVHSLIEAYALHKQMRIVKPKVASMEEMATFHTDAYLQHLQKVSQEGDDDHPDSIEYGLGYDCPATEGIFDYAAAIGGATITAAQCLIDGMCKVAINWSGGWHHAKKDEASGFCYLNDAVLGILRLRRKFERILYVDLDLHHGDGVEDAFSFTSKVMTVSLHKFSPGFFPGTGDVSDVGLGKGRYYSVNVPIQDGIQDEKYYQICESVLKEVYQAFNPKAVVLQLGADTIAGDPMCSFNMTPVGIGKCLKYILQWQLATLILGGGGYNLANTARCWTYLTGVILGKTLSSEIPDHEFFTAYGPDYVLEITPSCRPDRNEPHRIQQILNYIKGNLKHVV
# [2] = biological target: T2, Full length Human HDAC6 (Homo sapiens, UniProt Q9UBN7); experiment: Caliper endpoint assay for HDAC enzymatic activity (HDAC6); assay type: biochemical; conditions: for pIC50: in vitro enzymatic, Caliper endpoint assay, 30 min pre-incubation, 1 μM substrate peptide; for Selectivity (6 v 8): ratio of HDAC8 IC50/HDAC6 IC50
# T2 construct: Full length Human HDAC6; FLAG (C); host or cells: baculovirus expression system
# T2 sequence (Q9UBN7 1-1215): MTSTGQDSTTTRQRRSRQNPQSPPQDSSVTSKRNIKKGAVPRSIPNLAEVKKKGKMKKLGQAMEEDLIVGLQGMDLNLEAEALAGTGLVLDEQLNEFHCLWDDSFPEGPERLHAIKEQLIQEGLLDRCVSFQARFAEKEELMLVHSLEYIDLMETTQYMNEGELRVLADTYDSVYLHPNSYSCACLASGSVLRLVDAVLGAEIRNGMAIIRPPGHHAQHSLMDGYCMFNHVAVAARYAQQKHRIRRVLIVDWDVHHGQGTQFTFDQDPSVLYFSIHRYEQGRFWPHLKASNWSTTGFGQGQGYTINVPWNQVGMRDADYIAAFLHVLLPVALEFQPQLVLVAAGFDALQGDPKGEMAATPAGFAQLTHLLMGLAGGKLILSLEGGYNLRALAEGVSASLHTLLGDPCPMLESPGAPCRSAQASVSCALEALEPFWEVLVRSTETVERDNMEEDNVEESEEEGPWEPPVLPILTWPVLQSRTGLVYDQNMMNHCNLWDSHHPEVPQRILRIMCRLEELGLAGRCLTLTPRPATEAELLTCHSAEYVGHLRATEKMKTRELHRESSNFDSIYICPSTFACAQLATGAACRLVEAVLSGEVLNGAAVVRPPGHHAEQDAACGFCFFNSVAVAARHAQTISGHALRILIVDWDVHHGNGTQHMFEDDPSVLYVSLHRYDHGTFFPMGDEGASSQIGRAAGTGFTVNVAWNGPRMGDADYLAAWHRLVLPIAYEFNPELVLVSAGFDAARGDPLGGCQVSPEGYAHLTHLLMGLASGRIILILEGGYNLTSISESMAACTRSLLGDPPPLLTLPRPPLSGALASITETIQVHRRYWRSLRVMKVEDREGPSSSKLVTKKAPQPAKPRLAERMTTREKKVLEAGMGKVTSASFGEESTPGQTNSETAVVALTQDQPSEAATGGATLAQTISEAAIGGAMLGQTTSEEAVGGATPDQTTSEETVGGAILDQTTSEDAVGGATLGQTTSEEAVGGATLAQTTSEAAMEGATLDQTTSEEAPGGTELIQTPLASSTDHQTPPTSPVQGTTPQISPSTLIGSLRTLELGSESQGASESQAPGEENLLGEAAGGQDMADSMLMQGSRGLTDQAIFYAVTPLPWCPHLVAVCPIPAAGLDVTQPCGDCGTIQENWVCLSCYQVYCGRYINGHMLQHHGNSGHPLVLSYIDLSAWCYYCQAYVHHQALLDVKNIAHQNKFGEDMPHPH
pIC50 [1],pIC50 [2],Selectivity (6 v 8) [2],SMILES
5.00 to 6.00,7.00 to 9.00,IV (IV: >100-1000),"O=C(NO)c1cc(F)c2c(c1)CCN(C1CC3(CCCO3)C1)C2 (single isomer, unassigned) [Compound 190, 8-fluoro-N-hydroxy-2-(5-oxaspiro[3.4]octan-2-yl)-1,2,3,4-tetrahydroisoquinoline-6-carboxamide]"
4.00 to 5.00,7.00 to 9.00,IV (IV: >100-1000),"O=C(NO)c1cc(F)c2c(c1)CCN(C1CC3(CCCO3)C1)C2 (single isomer, unassigned) [Compound 191, 8-fluoro-N-hydroxy-2-(5-oxaspiro[3.4]octan-2-yl)-1,2,3,4-tetrahydroisoquinoline-6-carboxamide]"
4.00 to 5.00,7.00 to 9.00,V (V: >1000),"O=C(NO)c1cc(F)c2c(c1)CCN([C@@H]1CCCC3(CCC3)C1)C2 (single isomer, unassigned) [Compound 194]"
4.00 to 5.00,7.00 to 9.00,IV (IV: >100-1000),"O=C(NO)c1cc(F)c2c(c1)CCN([C@H]1CCCC3(CCC3)C1)C2 (single isomer, unassigned) [Compound 195]"
5.00 to 6.00,7.00 to 9.00,III (III: >10-100),"O=C(NO)c1cc(F)c2c(c1)CN(C[C@@H]1CCCCO1)CC2 (single isomer, unassigned) [Compound 214]"
6.00 to 7.00,7.00 to 9.00,II (II: >1-10),"O=C(NO)c1cc(F)c2c(c1)CN(C[C@H]1CCCCO1)CC2 (single isomer, unassigned) [Compound 215]"
< 4.00,7.00 to 9.00,V (V: >1000),"CC[C@H]1Cc2c(F)cc(C(=O)NO)cc2CN1CC1COC1 (single isomer, unassigned) [Compound 216]"
4.00 to 5.00,7.00 to 9.00,IV (IV: >100-1000),"CC[C@@H]1Cc2c(F)cc(C(=O)NO)cc2CN1CC1COC1 (single isomer, unassigned) [Compound 217]"
5.00 to 6.00,7.00 to 9.00,III (III: >10-100),"CC[C@@H]1Cc2c(F)cc(C(=O)NO)cc2CN1C[C@@H]1CCCCO1 (single isomer, unassigned) [Compound 228]"
5.00 to 6.00,6.00 to 7.00,III (III: >10-100),"CC[C@H]1Cc2c(F)cc(C(=O)NO)cc2CN1C[C@@H]1CCCCO1 (single isomer, unassigned) [Compound 229]"
5.00 to 6.00,7.00 to 9.00,III (III: >10-100),"CC[C@@H]1Cc2c(F)cc(C(=O)NO)cc2CN1C[C@H]1CCCCO1 (single isomer, unassigned) [Compound 230]"
5.00 to 6.00,7.00 to 9.00,IV (IV: >100-1000),"CC[C@H]1Cc2c(F)cc(C(=O)NO)cc2CN1C[C@H]1CCCCO1 (single isomer, unassigned) [Compound 231]"
4.00 to 5.00,6.00 to 7.00,IV (IV: >100-1000),"CC[C@@H]1Cc2c(F)cc(C(=O)NO)cc2CN1C1CC2(CCCCC2)C1 (single isomer, unassigned) [Compound 232]"
4.00 to 5.00,7.00 to 9.00,IV (IV: >100-1000),"CC[C@H]1Cc2c(F)cc(C(=O)NO)cc2CN1C1CC2(CCCCC2)C1 (single isomer, unassigned) [Compound 233]"
5.00 to 6.00,6.00 to 7.00,II (II: >1-10),"CC[C@@H](c1ccc(C(=O)NO)cc1F)N1CCC2(CCCCC2)C1 (single isomer, unassigned) [Compound 237]"
5.00 to 6.00,6.00 to 7.00,III (III: >10-100),"CC[C@H](c1ccc(C(=O)NO)cc1F)N1CCC2(CCCCC2)C1 (single isomer, unassigned) [Compound 238]"
5.00 to 6.00,4.00 to 5.00,I (I: 0.1-1),"CC(C)N1CC2(CCCCC2)CC[C@H]1Cc1cc(F)cc(C(=O)NO)c1 (single isomer, unassigned) [Compound 274]"
5.00 to 6.00,5.00 to 6.00,I (I: 0.1-1),"CC(C)N1CC2(CCCCC2)CC[C@@H]1Cc1cc(F)cc(C(=O)NO)c1 (single isomer, unassigned) [Compound 275]"
4.00 to 5.00,7.00 to 9.00,IV (IV: >100-1000),"O=C(NO)c1cc(F)c2c(c1)CCN([C@H]1CC[C@@]13CCOC3)C2 (single isomer, unassigned) [Compound 315]"
4.00 to 5.00,7.00 to 9.00,V (V: >1000),"O=C(NO)c1cc(F)c2c(c1)CCN([C@H]1CC[C@]13CCOC3)C2 (single isomer, unassigned) [Compound 316]"
4.00 to 5.00,7.00 to 9.00,IV (IV: >100-1000),"O=C(NO)c1cc(F)c2c(c1)CCN([C@@H]1CC[C@@]13CCOC3)C2 (single isomer, unassigned) [Compound 317]"
4.00 to 5.00,7.00 to 9.00,V (V: >1000),"O=C(NO)c1cc(F)c2c(c1)CCN([C@@H]1CC[C@]13CCOC3)C2 (single isomer, unassigned) [Compound 318]"
5.00 to 6.00,7.00 to 9.00,IV (IV: >100-1000),"O=C(NO)c1cc(F)c2c(c1)CCN(C1CC[C@@]13CCCO3)C2 (single isomer, unassigned) [Compound 319]"
4.00 to 5.00,7.00 to 9.00,IV (IV: >100-1000),"O=C(NO)c1cc(F)c2c(c1)CCN(C1CC[C@]13CCCO3)C2 (single isomer, unassigned) [Compound 320]"
5.00 to 6.00,7.00 to 9.00,III (III: >10-100),"CN1CC[C@@]2(CC[C@@H]2N2CCc3cc(C(=O)NO)cc(F)c3C2)C1 (single isomer, unassigned) [Compound 329]"
4.00 to 5.00,7.00 to 9.00,IV (IV: >100-1000),"CN1CC[C@]2(CC[C@@H]2N2CCc3cc(C(=O)NO)cc(F)c3C2)C1 (single isomer, unassigned) [Compound 330]"
4.00 to 5.00,7.00 to 9.00,IV (IV: >100-1000),"CN1CC[C@@]2(CC[C@H]2N2CCc3cc(C(=O)NO)cc(F)c3C2)C1 (single isomer, unassigned) [Compound 331]"
5.00 to 6.00,6.00 to 7.00,III (III: >10-100),"CN1CC[C@]2(CC[C@H]2N2CCc3cc(C(=O)NO)cc(F)c3C2)C1 (single isomer, unassigned) [Compound 332]"
4.00 to 5.00,7.00 to 9.00,IV (IV: >100-1000),"O=C(NO)c1cc(F)c2c(c1)CCN([C@H]1C[C@]3(CCCCO3)C1)C2 (single isomer, unassigned) [Compound 339, 8-fluoro-2-(5-oxaspiro[3.5]nonan-2-yl)-3,4-dihydro-1H-isoquinoline-6-carbohydroxamic acid]"
4.00 to 5.00,7.00 to 9.00,V (V: >1000),"O=C(NO)c1cc(F)c2c(c1)CCN([C@H]1C[C@@]3(CCCCO3)C1)C2 (single isomer, unassigned) [Compound 340, 8-fluoro-2-(5-oxaspiro[3.5]nonan-2-yl)-3,4-dihydro-1H-isoquinoline-6-carbohydroxamic acid]"
